Source: patent US11524938B2, “Aromatic sulfonamide derivatives” (Bayer Pharma Aktiengesellschaft, priority 2016, dated 2022)
pIC50: −log10 of the molar value.

Target: T1, human P2X4 (Homo sapiens, UniProt Q99571)
T1 sequence (Q99571 1-388): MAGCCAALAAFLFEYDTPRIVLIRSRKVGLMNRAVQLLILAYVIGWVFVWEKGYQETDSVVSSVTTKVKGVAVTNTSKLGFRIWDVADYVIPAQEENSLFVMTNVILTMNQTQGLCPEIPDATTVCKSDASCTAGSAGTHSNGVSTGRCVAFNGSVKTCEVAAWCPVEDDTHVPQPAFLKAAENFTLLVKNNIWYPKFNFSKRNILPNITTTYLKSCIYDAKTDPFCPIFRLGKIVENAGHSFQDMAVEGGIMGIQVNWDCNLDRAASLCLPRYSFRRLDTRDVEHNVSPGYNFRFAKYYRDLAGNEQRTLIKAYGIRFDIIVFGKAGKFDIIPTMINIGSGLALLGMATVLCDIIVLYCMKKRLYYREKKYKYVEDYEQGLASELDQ
Assay: Human P2X4 HEK Cell FLIPR Assay
Assay type: cell-based
Conditions: agonist Bz-ATP at EC80; for Emax: HEK293, HEK293 cells, percentage of maximal inhibition, read-out: Human P2X4 HEK Cells (FLIPR Assay) avg Efficacy [%]; for pIC50: HEK293 cells, individual values listed where some fall outside detection range
Method in brief: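 Calcium flux read by FLIPR for 120 sec after Bz-ATP challenge at EC80 (established each assay day), following 30 min room-temperature compound preincubation in dye-loaded stable human P2X4 HEK293 cells. Peak RFU over basal normalized to agonist control; IC50, maximal inhibition and Hill coefficient from triplicate means.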

Row | Emax [%] | pIC50 | Structure (SMILES)
1 | 88 | 7.29 | Cc1cc(-c2ccc(NC(=O)Cc3ccccc3Cl)cc2S(N)(=O)=O)n(C)n1 [Example 351, 2-(2-Chlorophenyl)-N-[4-(1,3-dimethyl-1H-pyrazol-5-yl)-3-sulfamoylphenyl]acetamide]
2 | 91 | 7.27 | NS(=O)(=O)c1cc(NC(=O)Cc2ccccc2Cl)ccc1-c1ccc(Cl)cc1 [Example 352, 2-(2-Chlorophenyl)-N-(4′-chloro-2-sulfamoylbiphenyl-4-yl)acetamide]
3 | 87 | 7.24 | Cn1nc(C(F)(F)F)cc1-c1ccc(NC(=O)Cc2ccccc2Cl)cc1S(N)(=O)=O [Example 353, 2-(2-Chlorophenyl)-N-{4-[1-methyl-3-(trifluoromethyl)-1H-pyrazol-5-yl]-3-sulfamoylphenyl}acetamide]
4 | 92 | 7.22 | NS(=O)(=O)c1cc(NC(=O)Cc2ccccc2Cl)ccc1-c1cccnc1 [Example 354, 2-(2-Chlorophenyl)-N-[4-(pyridin-3-yl)-3-sulfamoylphenyl]acetamide]
5 | 76 | 7.21 | Cn1cc(-c2ccc(NC(=O)Cc3ccccc3Cl)cc2S(N)(=O)=O)c(C(F)(F)F)n1 [Example 355, 2-(2-Chlorophenyl)-N-{4-[1-methyl-3-(trifluoromethyl)-1H-pyrazol-4-yl]-3-sulfamoylphenyl}acetamide]
6 | 96 | 7.20 | NS(=O)(=O)c1cc(NC(=O)Cc2ccccc2Cl)ccc1-c1cccc(Cl)c1 [Example 356, 2-(2-Chlorophenyl)-N-(3′-chloro-2-sulfamoylbiphenyl-4-yl)acetamide]
7 | 87 | 7.15 | NS(=O)(=O)c1cc(NC(=O)Cc2ccccc2Cl)ccc1-c1cnn(CC2CC2(Cl)Cl)c1 (stereo not shown) [Example 357, 2-(2-Chlorophenyl)-N-(4-{1-[(2,2-dichlorocyclopropyl)methyl]-1H-pyrazol-4-yl}-3-sulfamoylphenyl)acetamide]
8 | 88 | 7.13 | Cc1nn(C)cc1-c1ccc(NC(=O)Cc2ccccc2Cl)cc1S(N)(=O)=O [Example 358, 2-(2-Chlorophenyl)-N-[4-(1,3-dimethyl-1H-pyrazol-4-yl)-3-sulfamoylphenyl]acetamide]
9 | 84 | 7.11 | CC(C)n1cc(-c2ccc(NC(=O)Cc3ccccc3Cl)cc2S(N)(=O)=O)cn1 [Example 359, 2-(2-Chlorophenyl)-N-{4-[1-(propan-2-yl)-1H-pyrazol-4-yl]-3-sulfamoylphenyl}-acetamide]
10 | 93 |  | Cn1cc(-c2ccc(NC(=O)Cc3ccccc3Cl)cc2S(N)(=O)=O)cn1 [Example 360, 2-(2-Chlorophenyl)-N-[4-(1-methyl-1H-pyrazol-4-yl)-3-sulfamoylphenyl]acetamide]
11 | 83 | 7.01 | CC(C)(C)C(O)Cn1cc(-c2ccc(NC(=O)Cc3ccccc3Cl)cc2S(N)(=O)=O)cn1 (stereo not shown) [Example 361, 2-(2-Chlorophenyl)-N-{4-[1-(2-hydroxy-3,3-dimethylbutyl)-1H-pyrazol-4-yl]-3-sulfamoylphenyl}acetamide]
12 | 78 | 6.99 | NS(=O)(=O)c1cc(NC(=O)Cc2ccccc2F)ccc1-c1cncc(F)c1 [Example 362, 2-(2-Fluorophenyl)-N-[4-(5-fluoropyridin-3-yl)-3-sulfamoylphenyl]acetamide]
13 | 110 | 6.97 | Cc1c(-c2ccc(NC(=O)Cc3ccccc3Cl)cc2S(N)(=O)=O)cnn1-c1ccccc1 [Example 363, 2-(2-Chlorophenyl)-N-[4-(5-methyl-1-phenyl-1H-pyrazol-4-yl)-3-sulfamoylphenyl]-acetamide]
14 | 77 | 6.15 | CN(C)CCNC(=O)c1cccc(-c2ccc(NC(=O)Cc3ccccc3Cl)cc2S(N)(=O)=O)c1 [Example 364, 4′-{[(2-Chlorophenyl)acetyl]amino}-N-[2-(dimethylamino)ethyl]-2′-sulfamoylbiphenyl-3-carboxamide]
15 | 89 | 6.95 | NS(=O)(=O)c1cc(NC(=O)Cc2ccccc2Cl)ccc1-c1cnn2cccnc12 [Example 365, 2-(2-Chlorophenyl)-N-[4-(pyrazolo[1,5-a]pyrimidin-3-yl)-3-sulfamoylphenyl]acetamide]
16 | 97 | 6.89 | NS(=O)(=O)c1cc(NC(=O)Cc2ccccc2Cl)ccc1-c1cncc(C(=O)N2CCCC2)c1 [Example 366, 2-(2-Chlorophenyl)-N-{4-[5-(pyrrolidin-1-ylcarbonyl)pyridin-3-yl]-3-sulfamoylphenyl}acetamide]
17 | 83 | 6.88 | NS(=O)(=O)c1cc(NC(=O)Cc2ccccc2Cl)ccc1-c1cn[nH]c1 [Example 367, 2-(2-Chlorophenyl)-N-[4-(1H-pyrazol-4-yl)-3-sulfamoylphenyl]acetamide]

Row | Emax [%] | pIC50 | Structure (SMILES)
18 | 100 | 6.88 | Cn1nc(C(F)(F)F)cc1-c1ccc(NC(=O)Cc2ccccc2F)cc1S(N)(=O)=O [Example 368, 2-(2-Fluorophenyl)-N-{4-[1-methyl-3-(trifluoromethyl)-1H-pyrazol-5-yl]-3-sulfamoylphenyl}acetamide]
19 | 110 | 6.85 | COCCn1cc(-c2ccc(NC(=O)Cc3ccccc3F)cc2S(N)(=O)=O)cn1 [Example 369, 2-(2-Fluorophenyl)-N-{4-[1-(2-methoxyethyl)-1H-pyrazol-4-yl]-3-sulfamoylphenyl}acetamide]
20 | 76 | 6.84 | CC(C)(O)Cn1cc(-c2ccc(NC(=O)Cc3ccccc3Cl)cc2S(N)(=O)=O)cn1 [Example 370, 2-(2-Chlorophenyl)-N-{4-[1-(2-hydroxy-2-methylpropyl)-1H-pyrazol-4-yl]-3-sulfamoylphenyl}acetamide]
21 | 99 | 6.82 | NS(=O)(=O)c1cc(NC(=O)Cc2cc(Cl)ccc2F)ccc1-c1cnn(C2CC2)c1 [Example 371, 2-(5-Chloro-2-fluorophenyl)-N-[4-(1-cyclopropyl-1H-pyrazol-4-yl)-3-sulfamoylphenyl]acetamide]
22 | 83 | 6.78 | Cc1ccc(-c2ccc(NC(=O)Cc3ccccc3Cl)cc2S(N)(=O)=O)cn1 [Example 372, 2-(2-Chlorophenyl)-N-[4-(6-methylpyridin-3-yl)-3-sulfamoylphenyl]acetamide]
23 | 89 | 6.78 | NS(=O)(=O)c1cc(NC(=O)Cc2ccccc2Cl)ccc1-c1cnn(C2COC2)c1 [Example 373, 2-(2-Chlorophenyl)-N-{4-[1-(oxetan-3-yl)-1H-pyrazol-4-yl]-3-sulfamoylphenyl}-acetamide]
24 | 82 | 6.41 | Cn1cc(-c2ccc(NC(=O)Cc3ccccc3F)cc2S(N)(=O)=O)cn1 [Example 374, 2-(2-Fluorophenyl)-N-[4-(1-methyl-1H-pyrazol-4-yl)-3-sulfamoylphenyl]acetamide]
25 | 79 | 6.18 | Cc1nn(C)cc1-c1ccc(NC(=O)Cc2ccccc2F)cc1S(N)(=O)=O [Example 375, N-[4-(1,3-Dimethyl-1H-pyrazol-4-yl)-3-sulfamoylphenyl]-2-(2-fluorophenyl)acetamide]
26 | 98 | 8.05 | NS(=O)(=O)c1cc(NC(=O)Cc2ccccc2F)ccc1-c1nnc(C2CC2)o1 [Example 376, N-[4-(5-Cyclopropyl-1,3,4-oxadiazol-2-yl)-3-sulfamoylphenyl]-2-(2-fluorophenyl)-acetamide]
27 | 80 | 7.57 | NS(=O)(=O)c1cc(NC(=O)Cc2ccccc2Cl)ccc1-c1nnc(C2CC2)o1 [Example 377, 2-(2-Chlorophenyl)-N-[4-(5-cyclopropyl-1,3,4-oxadiazol-2-yl)-3-sulfamoylphenyl]-acetamide]
28 | 84 | 7.05 | NS(=O)(=O)c1cc(NC(=O)Cc2ccccc2F)ccc1-n1cc(C(F)F)cn1 [Example 378, N-{4-[4-(Difluoromethyl)-1H-pyrazol-1-yl]-3-sulfamoylphenyl}-2-(2-fluorophenyl)acetamide]
29 | 87 | 7.54 | NS(=O)(=O)c1cc(NC(=O)Cc2ccccc2Cl)ccc1-n1cc(C(F)F)cn1 [Example 379, 2-(2-Chlorophenyl)-N-{4-[4-(difluoromethyl)-1H-pyrazol-1-yl]-3-sulfamoylphenyl}acetamide]
30 | 77 |  | NS(=O)(=O)c1cc(NC(=O)Cc2ccccc2F)cnc1-n1cc(C(F)(F)F)cn1 [Example 381, 2-(2-Fluorophenyl)-N-{5-sulfamoyl-6-[4-(trifluoromethyl)-1H-pyrazol-1-yl]pyridin-3-yl}acetamide]
31 | 87 | 6.50 | N#Cc1cnn(-c2ncc(NC(=O)Cc3ccccc3F)cc2S(N)(=O)=O)c1 [Example 382, N-[6-(4-Cyano-1H-pyrazol-1-yl)-5-sulfamoylpyridin-3-yl]-2-(2-fluorophenyl)acetamide]
32 | 93 | 7.35 | N#Cc1cnn(-c2ncc(NC(=O)Cc3ccccc3Cl)cc2S(N)(=O)=O)c1 [Example 383, 2-(2-Chlorophenyl)-N-[6-(4-cyano-1H-pyrazol-1-yl)-5-sulfamoylpyridin-3-yl]acetamide]
33 | 81 | 6.28 | NS(=O)(=O)c1cc(NC(=O)Cc2ccccc2F)cnc1-n1cc(F)cn1 [Example 384, 2-(2-Fluorophenyl)-N-[6-(4-fluoro-1H-pyrazol-1-yl)-5-sulfamoylpyridin-3-yl]acetamide]
